Tested on: Sprague Dawley (SD) rats
Experiment: Organ weight and ratios, 4-week subacute toxicity study
Format: in vivo, rat
Description: Complete gross necropsies were conducted on all surviving animals at the end of treatment (the day after the last dosing) and recovery periods. The following selected organs were weighed and evaluated in terms of organ/body or organ/brain weight ratios: brain, kidneys, adrenals, testes, ovaries, uterus, epididymides, thymus, spleen, heart and liver. Paired organs were weighed together. Organ-to-body weight ratio = Organ weight(g)/Body weight(g) × 100%, and Organ-to-brain weight ratio = Organ weight(g)/Brain weight(g) × 100%.

[1] = female rats, 0.6 mg/kg/day, End of dosing phase
[2] = female rats, 0.6 mg/kg/day, End of recovery phase
[3] = female rats, 1.2 mg/kg/day, End of dosing phase
[4] = female rats, 1.2 mg/kg/day, End of recovery phase
[5] = female rats, 2.4 mg/kg/day, End of dosing phase
[6] = female rats, 2.4 mg/kg/day, End of recovery phase
[7] = male rats, 0.6 mg/kg/day, End of dosing phase
[8] = male rats, 0.6 mg/kg/day, End of recovery phase
[9] = male rats, 1.2 mg/kg/day, End of dosing phase
[10] = male rats, 1.2 mg/kg/day, End of recovery phase
[11] = male rats, 2.4 mg/kg/day, End of dosing phase
[12] = male rats, 2.4 mg/kg/day, End of recovery phase

## Fc1ccc([C@]2(CCNCc3cccc(Cl)c3)CCO[C@]3(CCOC3)C2)nc1 [LPM3480392]
[1]
  Organ weight, Brain: 1.862 ± 0.102 g
  Organ weight, Kidney: 1.501 ± 0.123 g
  Organ weight, Spleen: 0.646 ± 0.159 g
  Organ weight, Thymus: 0.402 ± 0.053 g
  Organ-to-body weight ratio, Brain: 0.875 ± 0.063 %
  Organ-to-body weight ratio, Kidney: 0.704 ± 0.037%
  Organ-to-body weight ratio, Spleen: 0.301 ± 0.065%
  Organ-to-body weight ratio, Thymus: 0.189 ± 0.028%
  Organ-to-brain weight ratio, Adrenal gland: 3.21 ± 0.59%
  Organ-to-brain weight ratio, Kidney: 80.71 ± 6.29%
  Organ-to-brain weight ratio, Spleen: 34.73 ± 8.54%
  Organ-to-brain weight ratio, Thymus: 21.61 ± 3.02%
  Terminal BW: 213.5 ± 15.3 g
[2]
  Organ weight, Brain: 2.018 ± 0.046 g
  Organ weight, Kidney: 1.626 ± 0.142 g
  Organ weight, Spleen: 0.530 ± 0.085 g
  Organ weight, Thymus: 0.308 ± 0.055 g
  Organ-to-body weight ratio, Brain: 0.804 ± 0.031%
  Organ-to-body weight ratio, Kidney: 0.647 ± 0.043%
  Organ-to-body weight ratio, Spleen: 0.210 ± 0.030%
  Organ-to-body weight ratio, Thymus: 0.122 ± 0.019%
  Organ-to-brain weight ratio, Adrenal gland: 2.91 ± 0.20%
  Organ-to-brain weight ratio, Kidney: 80.51 ± 6.21%
  Organ-to-brain weight ratio, Spleen: 26.23 ± 4.03%
  Organ-to-brain weight ratio, Thymus: 15.21 ± 2.43%
  Terminal BW: 251.2 ± 9.7 g
[3]
  Organ weight, Brain: 1.916 ± 0.096 g
  Organ weight, Kidney: 1.518 ± 0.127 g
  Organ weight, Spleen: 0.637 ± 0.078 g
  Organ weight, Thymus: 0.380 ± 0.046 g
  Organ-to-body weight ratio, Brain: 0.881 ± 0.039 %
  Organ-to-body weight ratio, Kidney: 0.697 ± 0.044%
  Organ-to-body weight ratio, Spleen: 0.294 ± 0.042%
  Organ-to-body weight ratio, Thymus: 0.175 ± 0.026%
  Organ-to-brain weight ratio, Adrenal gland: 2.89 ± 0.37%
  Organ-to-brain weight ratio, Kidney: 79.14 ± 3.61%
  Organ-to-brain weight ratio, Spleen: 33.29 ± 3.96%
  Organ-to-brain weight ratio, Thymus: 19.90 ± 2.88%
  Terminal BW: 217.8 ± 15.0 g
[4]
  Organ weight, Brain: 1.990 ± 0.086 g
  Organ weight, Kidney: 1.567 ± 0.165 g
  Organ weight, Spleen: 0.574 ± 0.056 g
  Organ weight, Thymus: 0.297 ± 0.056 g
  Organ-to-body weight ratio, Brain: 0.802 ± 0.031%
  Organ-to-body weight ratio, Kidney: 0.630 ± 0.037%
  Organ-to-body weight ratio, Spleen: 0.231 ± 0.016%
  Organ-to-body weight ratio, Thymus: 0.120 ± 0.023%
  Organ-to-brain weight ratio, Adrenal gland: 2.68 ± 0.38%
  Organ-to-brain weight ratio, Kidney: 78.65 ± 6.18%
  Organ-to-brain weight ratio, Spleen: 28.83 ± 2.34%
  Organ-to-brain weight ratio, Thymus: 14.89 ± 2.48%
  Terminal BW: 248.4 ± 12.5 g
[5]
  Organ weight, Brain: 1.958 ± 0.105 g
  Organ weight, Kidney: 1.549 ± 0.122 g
  Organ weight, Spleen: 0.616 ± 0.144 g
  Organ weight, Thymus: 0.339 ± 0.075 g
  Organ-to-body weight ratio, Brain: 0.943 ± 0.055%
  Organ-to-body weight ratio, Kidney: 0.746 ± 0.049%
  Organ-to-body weight ratio, Spleen: 0.294 ± 0.049%
  Organ-to-body weight ratio, Thymus: 0.162 ± 0.031%
  Organ-to-brain weight ratio, Adrenal gland: 2.88 ± 0.24%
  Organ-to-brain weight ratio, Kidney: 79.23 ± 6.43%
  Organ-to-brain weight ratio, Spleen: 31.37 ± 6.57%
  Organ-to-brain weight ratio, Thymus: 17.23 ± 3.33%
  Terminal BW: 208.0 ± 14.6 g
[6]
  Organ weight, Brain: 2.075 ± 0.093 g
  Organ weight, Kidney: 1.554 ± 0.133 g
  Organ weight, Spleen: 0.502 ± 0.064 g
  Organ weight, Thymus: 0.331 ± 0.135 g
  Organ-to-body weight ratio, Brain: 0.856 ± 0.093%
  Organ-to-body weight ratio, Kidney: 0.637 ± 0.024%
  Organ-to-body weight ratio, Spleen: 0.206 ± 0.027%
  Organ-to-body weight ratio, Thymus: 0.135 ± 0.047%
  Organ-to-brain weight ratio, Adrenal gland: 2.71 ± 0.42%
  Organ-to-brain weight ratio, Kidney: 75.09 ± 8.25%
  Organ-to-brain weight ratio, Spleen: 24.11 ± 2.01%
  Organ-to-brain weight ratio, Thymus: 16.14 ± 7.16%
  Terminal BW: 244.2 ± 24.2 g
[7]
  Organ weight, Adrenal gland: 0.052 ± 0.011 g
  Organ weight, Brain: 2.094 ± 0.050 g
  Organ weight, Epididymis: 0.977 ± 0.089 g
  Organ weight, Heart: 1.289 ± 0.102 g
  Organ weight, Liver: 8.125 ± 0.587 g
  Organ weight, Spleen: 0.741 ± 0.128 g
  Organ weight, Thymus: 0.477 ± 0.062 g
  Organ-to-body weight ratio, Adrenal gland: 0.016 ± 0.003%
  Organ-to-body weight ratio, Brain: 0.650 ± 0.035%
  Organ-to-body weight ratio, Epididymis: 0.303 ± 0.028%
  Organ-to-body weight ratio, Heart: 0.399 ± 0.028 %
  Organ-to-body weight ratio, Liver: 2.516 ± 0.108%
  Organ-to-body weight ratio, Spleen: 0.229 ± 0.030%
  Organ-to-body weight ratio, Thymus: 0.147 ± 0.016%
  Organ-to-brain weight ratio, Adrenal gland: 2.50 ± 0.58%
  Organ-to-brain weight ratio, Epididymis: 46.67 ± 4.12%
  Organ-to-brain weight ratio, Heart: 61.61 ± 5.76%
  Organ-to-brain weight ratio, Liver: 388.28 ± 30.51%
  Organ-to-brain weight ratio, Spleen: 35.42 ± 6.22%
  Organ-to-brain weight ratio, Thymus: 22.74 ± 2.77%
  Terminal BW: 322.9 ± 16.9 g
[8]
  Organ weight, Adrenal gland: 0.057 ± 0.008 g
  Organ weight, Brain: 2.262 ± 0.071 g
  Organ weight, Epididymis: 1.432 ± 0.140 g
  Organ weight, Heart: 1.431 ± 0.112 g
  Organ weight, Liver: 9.943 ± 1.685 g
  Organ weight, Spleen: 0.774 ± 0.108 g
  Organ weight, Thymus: 0.470 ± 0.076 g
  Organ-to-body weight ratio, Adrenal gland: 0.013 ± 0.002%
  Organ-to-body weight ratio, Brain: 0.534 ± 0.040%
  Organ-to-body weight ratio, Epididymis: 0.338 ± 0.036%
  Organ-to-body weight ratio, Heart: 0.337 ± 0.020%
  Organ-to-body weight ratio, Liver: 2.327 ± 0.250%
  Organ-to-body weight ratio, Spleen: 0.182 ± 0.018%
  Organ-to-body weight ratio, Thymus: 0.110 ± 0.016%
  Organ-to-brain weight ratio, Adrenal gland: 2.52 ± 0.37%
  Organ-to-brain weight ratio, Epididymis: 63.42 ± 6.91%
  Organ-to-brain weight ratio, Heart: 63.29 ± 4.73%
  Organ-to-brain weight ratio, Liver: 441.01 ± 85.94%
  Organ-to-brain weight ratio, Spleen: 34.27 ± 5.33%
  Organ-to-brain weight ratio, Thymus: 20.83 ± 3.66%
  Terminal BW: 425.2 ± 26.4 g
[9]
  Organ weight, Adrenal gland: 0.052 ± 0.007 g
  Organ weight, Brain: 2.015 ± 0.137 g
  Organ weight, Epididymis: 1.020 ± 0.040 g
  Organ weight, Heart: 1.199 ± 0.140 g
  Organ weight, Liver: 7.643 ± 0.801 g
  Organ weight, Spleen: 0.703 ± 0.103 g
  Organ weight, Thymus: 0.425 ± 0.115 g
  Organ-to-body weight ratio, Adrenal gland: 0.017 ± 0.002%
  Organ-to-body weight ratio, Brain: 0.655 ± 0.040%
  Organ-to-body weight ratio, Epididymis: 0.332 ± 0.030%
  Organ-to-body weight ratio, Heart: 0.388 ± 0.025 %
  Organ-to-body weight ratio, Liver: 2.473 ± 0.100%
  Organ-to-body weight ratio, Spleen: 0.227 ± 0.026%
  Organ-to-body weight ratio, Thymus: 0.136 ± 0.028%
  Organ-to-brain weight ratio, Adrenal gland: 2.59 ± 0.37%
  Organ-to-brain weight ratio, Epididymis: 50.88 ± 4.79%
  Organ-to-brain weight ratio, Heart: 59.48 ± 5.54%
  Organ-to-brain weight ratio, Liver: 378.95 ± 25.83%
  Organ-to-brain weight ratio, Spleen: 35.01 ± 5.62%
  Organ-to-brain weight ratio, Thymus: 20.87 ± 4.42%
  Terminal BW: 308.5 ± 22.5 g
[10]
  Organ weight, Adrenal gland: 0.060 ± 0.010 g
  Organ weight, Brain: 2.177 ± 0.033 g
  Organ weight, Epididymis: 1.351 ± 0.094 g
  Organ weight, Heart: 1.483 ± 0.081 g
  Organ weight, Liver: 10.423 ± 1.077 g
  Organ weight, Spleen: 0.814 ± 0.089 g
  Organ weight, Thymus: 0.393 ± 0.042 g
  Organ-to-body weight ratio, Adrenal gland: 0.014 ± 0.003%
  Organ-to-body weight ratio, Brain: 0.514 ± 0.031%
  Organ-to-body weight ratio, Epididymis: 0.318 ± 0.010%
  Organ-to-body weight ratio, Heart: 0.349 ± 0.017%
  Organ-to-body weight ratio, Liver: 2.451 ± 0.149%
  Organ-to-body weight ratio, Spleen: 0.192 ± 0.022%
  Organ-to-body weight ratio, Thymus: 0.093 ± 0.013%
  Organ-to-brain weight ratio, Adrenal gland: 2.74 ± 0.50%
  Organ-to-brain weight ratio, Epididymis: 62.05 ± 4.34%
  Organ-to-brain weight ratio, Heart: 68.08 ± 3.40%
  Organ-to-brain weight ratio, Liver: 478.76 ± 49.84%
  Organ-to-brain weight ratio, Spleen: 37.41 ± 4.09%
  Organ-to-brain weight ratio, Thymus: 18.03 ± 1.83%
  Terminal BW: 424.6 ± 23.0 g
[11]
  Organ weight, Adrenal gland: 0.052 ± 0.004 g
  Organ weight, Brain: 2.031 ± 0.066 g
  Organ weight, Epididymis: 0.904 ± 0.104 g
  Organ weight, Heart: 1.172 ± 0.071 g
  Organ weight, Liver: 7.348 ± 0.497 g
  Organ weight, Spleen: 0.686 ± 0.129 g
  Organ weight, Thymus: 0.394 ± 0.075 g
  Organ-to-body weight ratio, Adrenal gland: 0.018 ± 0.002%
  Organ-to-body weight ratio, Brain: 0.689 ± 0.061%
  Organ-to-body weight ratio, Epididymis: 0.305 ± 0.028%
  Organ-to-body weight ratio, Heart: 0.397 ± 0.037 %
  Organ-to-body weight ratio, Liver: 2.487 ± 0.195%
  Organ-to-body weight ratio, Spleen: 0.231 ± 0.033%
  Organ-to-body weight ratio, Thymus: 0.132 ± 0.019%
  Organ-to-brain weight ratio, Adrenal gland: 2.59 ± 0.24%
  Organ-to-brain weight ratio, Epididymis: 44.58 ± 5.64 %
  Organ-to-brain weight ratio, Heart: 57.77 ± 3.83%
  Organ-to-brain weight ratio, Liver: 361.66 ± 16.84 %
  Organ-to-brain weight ratio, Spleen: 33.71 ± 5.76%
  Organ-to-brain weight ratio, Thymus: 19.36 ± 3.42%
  Terminal BW: 296.6 ± 24.2 g
[12]
  Organ weight, Adrenal gland: 0.055 ± 0.009 g
  Organ weight, Brain: 2.185 ± 0.147 g
  Organ weight, Epididymis: 1.239 ± 0.114 g
  Organ weight, Heart: 1.360 ± 0.262 g
  Organ weight, Liver: 9.451 ± 1.196 g
  Organ weight, Spleen: 0.775 ± 0.172 g
  Organ weight, Thymus: 0.386 ± 0.038 g
  Organ-to-body weight ratio, Adrenal gland: 0.014 ± 0.002%
  Organ-to-body weight ratio, Brain: 0.559 ± 0.076%
  Organ-to-body weight ratio, Epididymis: 0.315 ± 0.026%
  Organ-to-body weight ratio, Heart: 0.342 ± 0.024%
  Organ-to-body weight ratio, Liver: 2.391 ± 0.064%
  Organ-to-body weight ratio, Spleen: 0.194 ± 0.023%
  Organ-to-body weight ratio, Thymus: 0.099 ± 0.013%
  Organ-to-brain weight ratio, Adrenal gland: 2.55 ± 0.51%
  Organ-to-brain weight ratio, Epididymis: 56.82 ± 5.54%
  Organ-to-brain weight ratio, Heart: 62.11 ± 10.37%
  Organ-to-brain weight ratio, Liver: 432.91 ± 49.50%
  Organ-to-brain weight ratio, Spleen: 35.31 ± 6.72%
  Organ-to-brain weight ratio, Thymus: 17.77 ± 2.29%
  Terminal BW: 395.7 ± 53.7 g

Reference: PMC10436550, “Subacute toxicity evaluations of LPM3480392 in rats, a full µ-opioid receptor biased agonist” (Frontiers in Pharmacology, 2023)
